{"source": "paper PMC4303307", "about": "(Biochemistry, 2014)", "origin": "cited, not measured here", "tested_on": "γ-crystallin", "details": "cited from earlier work", "note": "Where no end group is shown, it is not given here.", "data": [{"substance": "MAC peptide with an acetylated Lys 70: the MAC peptide with an acetylated Lys 70 used by Nahomi et al. (K(Ac)FVIFLDVKHFSPEDLTVK; UniProt P02489 70-88, looked up, fragment)", "values": [{"measurement": "chaperone activity of acetylated Lys vs Asp at the N-terminal end", "result": "enhanced chaperone activity"}, {"measurement": "increase of chaperone activity over nonacetylated peptide", "setting": "in vitro, γ-crystallin substrate", "result": "~15", "unit": "%"}]}]}
